Patent US20240391892A1, “A SMALL MOLECULE COMPOUND AND ITS USE AND PREPARATION METHOD” (SHANGHAI COACHCHEM TECHNOLOGY CO., LTD, priority 2022, published 2024)
“And” between values parts separate entries of the source, which are not always exact repeats. Equal entries are not always repeated.

Key:
[1] = system: HaCat cells; experiment: Intracellular ROS scavenging test in UVB-irradiated HaCat cells; type: cell-based, human; conditions: UVB 20 mJ/cm2, 24 hours incubation, vs UVB control, p<0.001
Method: Among these factors, UV radiation stands as the most significant contributor. Skin exposed to UV radiation generates an excess of reactive oxygen species (ROS) within cells, triggering the expression of genes related to aging, instigating an inflammatory cascade, and reducing the expression of elastin and collagen proteins, leading to manifestations of photoaging like skin laxity and wrinkles. Photoaging predominantly occurs in the dermis.
UVB irradiation is administered to immortalized human keratinocytes (HaCat cells) to induce intracellular reactive oxygen species (ROS) generation. The UVB dose applied to HaCat cells is 20 mJ/cm2. Following the UVB treatment, varying concentrations of Retinyl 4-t-Butylcyclohexanol test samples are added to the cells and incubated for 24 hours. ROS levels within the cells are assessed using a ROS detection kit.
Graph Pad Prism was used for statistical plotting, and the results were presented as Mean±SD. Statistical analysis was conducted using the t-test. A significance level of p<0.05 was considered statistically significant, where *p<0.05, ** p<0.0 1 (0.005<** p<0.01), and *** p<0.001, indicating increased significance as the p-value decreases. When employing the t-test for statistical analysis, the comparison between the UVB control group and the Control group was represented as # (p<0.001 indicated as ###). […]

[2] = In vitro DPPH free radical scavenging test; type: biochemical; set-up: DPPH Free Radical Scavenging Rate (%v/v): unit not given here; conditions: for DPPH Free Radical Scavenging Rate (%v/v): mean ± SD; for DPPH Free Radical Scavenging Rate (%): replicate wells
Source text: The DPPH radical scavenging assay is an in vitro method used to evaluate antioxidant activity. DPPH is a stable free radical in organic solvents and appears purple in methanol or ethanol, with maximum absorption at a wavelength of 517 nm. The DPPH assay is based on the ability of an antioxidant to donate an electron to the DPPH radical, converting its purple color to yellow. The degree of absorbance change at 517 nm corresponds to the extent of the free radical scavenging activity, meaning the stronger the scavenging ability of the antioxidant, the lower the absorbance.
Using ascorbic acid (VC) as a system reference, dilute it with PBS to obtain five concentrations: 12.5, 25, 50, 100, and 200 μg/mL. Perform the test and calculations according to the procedure outlined in 3.3.2. Plot the reference curve with the concentration of the reference substance on the x-axis and the DPPH free radical scavenging rate on the y-axis.
Prepare the samples into the respective concentrations of test solutions. Prepare the reaction system by adding the specified amount of each reagent mentioned in Table 1, mix thoroughly. For each concentration, set up three replicate wells and one blank control well.
The reaction system is placed at room temperature and allowed to react in the dark for 30 minutes. After the reaction is complete, the absorbance (OD value) is measured at 515 nm. The formula to calculate the scavenging rate of the sample against DPPH free radicals is as follows:
[formula] [formula] • Where: • C1=Absorbance value of the blank with DPPH • C2=Absorbance value of the blank without DPPH • T1=Absorbance value of the sample with DPPH • T2=Absorbance value of the sample without DPPH

[3] = Stability test under light and temperature, content by HPLC-DAD; type: physicochemical
Method: To compare the stability of Retinyl-trans-4-tert-Butylcyclohexanol and retinol […] under different conditions.
A certain amount of retinol and Retinyl-trans-4-tert-Butylcyclohexanol is taken and placed under conditions of light exposure, 4° C., 25° C., 45° C., and 50° C. for 28 days. Samples are periodically collected to determine their content and examine the influence of light and temperature on their stability.
High-Performance Liquid Chromatography with Diode Array Detection (HPLC-DAD), Electronic Balance (precision of 0.01 mg), Chromatographic Column (Welch Ultimate series XB-C18 column, 250 mm*4.6 mm, 5 μm), Several volumetric flasks.
(§1) Accurately weigh approximately 0.1g of Retinyl-trans-4-tert-Butylcyclohexanol samples obtained under conditions of light exposure, 4° C., 25° C., 45° C., and 50° C. into a 100 mL brown volumetric flask. Add an appropriate amount of acetonitrile while avoiding light, ultrasonicate, dilute to the mark, shake well, and prepare two parallel samples for each condition.
as §1, with “0.1 g” for “0.1g”, “retinol” for “Retinyl-trans-4-tert-Butylcyclohexanol”
Operate according to the procedures for high-performance liquid chromatography (HPLC) usage and maintenance: • I) Run the blank solvent, inject 2 times, record the chromatogram for up to 30 minutes; • II) Run at least 3 injections of the control solution 1, record the chromatogram for up to 30 minutes; • III) Run the control solution 2, inject 2 times, record the chromatogram for up to 30 minutes; • IV) Inject 2 samples of the test solution, record the chromatogram for up to 30 minutes; • V) Adjust the chromatogram scale, integrate, and print. […]

Compound	UVB-induced intracellular ROS levels [1]	DPPH free radical scavenging compared to the control group ([2]; concentrations 0.02% to 4%, p<0.001)	DPPH Free Radical Scavenging Rate (%v/v) ([2]; sample concentration 0.02 %v/v)	DPPH Free Radical Scavenging Rate (%v/v) ([2]; sample concentration 0.1 %v/v)	DPPH Free Radical Scavenging Rate (%v/v) ([2]; sample concentration 0.5 %v/v)	DPPH Free Radical Scavenging Rate (%v/v) ([2]; sample concentration 2 %v/v)	DPPH Free Radical Scavenging Rate (%v/v) ([2]; sample concentration 4 %v/v)	Content after storage ([3]; 28 days at 4° C.)	Content after storage ([3]; 28 days at room temperature)	Stability compared with retinol ([3]; light exposure, room temperature, 45° C. and 50° C., 28 days, not at 4° C.)	DPPH Free Radical Scavenging Rate (%) ([2]; concentration 12.5 μg/mL)	DPPH Free Radical Scavenging Rate (%) ([2]; concentration 25 μg/mL)	DPPH Free Radical Scavenging Rate (%) ([2]; concentration 50 μg/mL)	DPPH Free Radical Scavenging Rate (%) ([2]; concentration 100 μg/mL)	DPPH Free Radical Scavenging Rate (%) ([2]; concentration 200 μg/mL)
CC1=C(/C=C/C(C)=C/C=C/C(C)=C/C(=O)O[C@H]2CC[C@H](C(C)(C)C)CC2)C(C)(C)CCC1 [Retinyl 4-trans-t-Butylcyclohexanol, retinoic acid trans-4-tert-butylcyclohexyl ester]	effectively reduced	statistically significant increase	9.87 ± 3.44	15.91 ± 1.25	36.72 ± 1.98	48.12 ± 1.07	83.96 ± 1.22	above 98%	above 98%	significantly higher					
O=C1O[C@H]([C@@H](O)CO)C(O)=C1O [ascorbic acid]											20.55% and 18.55% and 20.32%	30.26% and 31.17% and 32.98%	64.58% and 65.09% and 62.73%	101.32% and 95.11% and 97.07%	101.28% and 92.01% and 108.75%
